SMILES strings stand for the structures. Activity calls are given as the source filed them. The rule behind the calls is not given here.

The subject of the data set is rodent carcinogenicity bioassays, tumor incidence. Kind of data set: CCRIS carcinogenicity studies. The method in brief:
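NCI-built, expert-reviewed records of carcinogenicity and related test outcomes (mutagenicity, tumor promotion/inhibition) compiled from published and report sources, historical span 1985-2011, not updated.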

For the molecule `CCCC1O[C@@H]2C[C@H]3[C@@H]4CCC5=CC(=O)C=C[C@]5(C)[C@H]4[C@@H](O)C[C@]3(C)[C@]2(C(=O)CO)O1` (some centres not stated), the carcinogen call (Species: RAT, Strain/Sex: SPRAGUE-DAWLEY/MALE, Route: ORAL, Dose: 0, 5 UG/ML IN DRINKING WATER FOR AN AVERAGE DAILY DOSE OF 46.6 UG/KG FOR 104 WK (STUDY DURATION: 104 WK), Tumor Site: Type of Lesion: LIVER: HEPATOCELLULAR ADENOMA OR CARCINOMA) was “active; positive”.
Take `CCOP(=S)(OCC)Oc1nc(Cl)n(C(C)C)n1`: the carcinogen call (Species: Mouse, Strain/Sex: Crl:CD-1(ICR)BR/Female (60/Group), Route: Oral, Dose: 0, 0.3, 1.0, 30, 300 ppm of 94.9% of isazophos in diet for 18 mo, study duration 18 mo, Dose: 0, 0.3, 1.0, 30, 300 ppm of 94.9% of isazophos in diet for 18 mo, study duration 18 mo) was “inactive; negative”; the carcinogen call (Species: Mouse, Strain/Sex: Crl:CD-1(ICR)BR/Male (60/Group), Route: Oral, Dose: 0, 0.3, 1.0, 30, 300 ppm (reduced to 250 at wk 23) ppm of 94.9% of isazophos in diet for 18 mo, study duration 18 mo, Dose: 0, 0.3, 1.0, 30, 300 ppm (reduced to 250 at wk 23) ppm of 94.9% of isazophos in diet for 18 mo, study duration 18 mo) was “inactive; negative”; the carcinogen call (Species: Rat, Strain/Sex: Crl:CD(SD)BR/Female (60/Group), Route: Oral, Dose: 0, 0.1, 1.0, 300 reduced to 250 at wk 22 and then to 200 ppm at wk 66 of 94.9% of isazophos in diet for 24 mo, study dur, Dose: 0, 0.1, 1.0, 300 reduced to 250 at wk 22 and then to 200 ppm at wk 66 of 94.9% of isazophos in diet for 24 mo, study dur) was “inactive; negative”; the carcinogen call (Species: Rat, Strain/Sex: Crl:CD(SD)BR/Male (60/Group), Route: Oral, Dose: 0, 0.1, 1.0, 300 ppm of 94.9% of isazophos in diet for 24 mo, study duration 24 mo, Dose: 0, 0.1, 1.0, 300 ppm of 94.9% of isazophos in diet for 24 mo, study duration 24 mo) was “inactive; negative”.
`CN1[C@@H]2CC[C@H]1CC(OC(=O)C(CO)c1ccccc1)C2` (some centres not stated): under “Species: RAT, Strain/Sex: SPRAGUE-DAWLEY/FEMALE, Route: INTRAPERITONEAL, Dose: 0, 25 UG/KG BW 2/D FOR 5 D TO VIRGIN FEMALE RATS (STUDY DURATION: 28 MO)”, the carcinogen call was “inactive; negative”.
For the molecule `Cc1cccc(Nc2cc(Cl)nc(SCC(=O)NCCO)n2)c1C`, the carcinogen call was “active; positive” (Species: MOUSE, Strain/Sex: STRAIN-CS/FEMALE, Route: ORAL, Dose: 0.2% IN DIET FOR 19 MO, Tumor Site: Type of Lesion: LIVER: HEPATOCELLULAR CARCINOMA) and “active; positive” (Species: RAT, Strain/Sex: F344/MALE, Route: ORAL, Dose: 0.05, 0.2% IN DIET FOR 19 MO (LOW DOSE) OR 16 MO (HIGH DOSE), Tumor Site: Type of Lesion: LIVER: HEPATOCELLULAR CARCINOMA).
In the case of `c1ccc(Nc2ccc(Nc3ccccc3)cc2)cc1`, the carcinogen call (Species: RAT, Strain/Sex: F344/FEMALE, Route: ORAL, Dose: 0, 0.5, 2% IN DIET FOR 104 WK (STUDY DURATION: 112 WK), Dose: 0, 0.5, 2% IN DIET FOR 104 WK (STUDY DURATION: 112 WK)) is “inactive; negative” and the carcinogen call (Species: RAT, Strain/Sex: F344/MALE, Route: ORAL, Dose: 0, 0.5, 2% IN DIET FOR 104 WK (STUDY DURATION: 112 WK), Dose: 0, 0.5, 2% IN DIET FOR 104 WK (STUDY DURATION: 112 WK)) was “inactive; negative”.
With `Nc1ccccc1N`, the carcinogen call is “active; positive” (Species: MOUSE, Route: ORAL, Tumor Site: Type of Lesion: LIVER) and “active; positive” (Species: RAT, Route: ORAL, Tumor Site: Type of Lesion: LIVER).
With `OCc1ccc2ccc3cccc4ccc1c2c34`, the carcinogen call (Species: RAT, Strain/Sex: SPRAGUE-DAWLEY/FEMALE, Route: SUBCUTANEOUS, Dose: 0, 0.2 UMOL IN 0.1 ML SESAME OIL:DMSO (9:1) 1/2 D FOR 20 DOSES (STUDY DURATION: 52 WK)) is “inactive; negative”.
With `NNC(=O)c1cccnc1`, the carcinogen call was “active; positive” (Species: MOUSE, Strain/Sex: SWISS/FEMALE, Route: ORAL, Dose: 0, 0.125% IN DRINKING WATER FOR LIFE, STUDY DURATION: 100-110 WK, Dose: 0, 0.125% IN DRINKING WATER FOR LIFE, STUDY DURATION: 100-110 WK, Tumor Site: Type of Lesion: LUNG: ADENOMA, ADENOMA OR ADENOCARCINOMA) and “active; positive” (Species: MOUSE, Strain/Sex: SWISS/MALE, Route: ORAL, Dose: 0, 0.125% IN DRINKING WATER FOR LIFE, STUDY DURATION: 90-100 WK, Dose: 0, 0.125% IN DRINKING WATER FOR LIFE, STUDY DURATION: 90-100 WK, Tumor Site: Type of Lesion: LUNG: ADENOMA OR ADENOCARCINOMA).
Consider `COc1ccc(N)cc1`, for which the carcinogen call is “inactive; negative” (Species: MOUSE, Strain/Sex: B6C3F1/FEMALE, Route: ORAL, Dose: 0, 0.5, 1.0% OF DIET FOR 103 WK (STUDY DURATION: 104 WK), Dose: 0, 0.5, 1.0% OF DIET FOR 103 WK (STUDY DURATION: 104 WK)); “inactive; negative” (Species: MOUSE, Strain/Sex: B6C3F1/MALE, Route: ORAL, Dose: 0, 0.5, 1.0% OF DIET FOR 103 WK (STUDY DURATION: 104 WK), Dose: 0, 0.5, 1.0% OF DIET FOR 103 WK (STUDY DURATION: 104 WK)); “inactive; negative” (Species: RAT, Strain/Sex: F344/FEMALE, Route: ORAL, Dose: 0, 0.3, 0.6% OF DIET FOR 103 WK (STUDY DURATION: 104-105 WK), Dose: 0, 0.3, 0.6% OF DIET FOR 103 WK (STUDY DURATION: 104-105 WK)); “equivocal” (Species: RAT, Strain/Sex: F344/MALE, Route: ORAL, Dose: 0, 0.3, 0.6% OF DIET FOR 103 WK (STUDY DURATION: 104-105 WK), Dose: 0, 0.3, 0.6% OF DIET FOR 103 WK (STUDY DURATION: 104-105 WK), Tumor Site: Type of Lesion: PREPUTIAL GLAND: ADENOMA OR CARCINOMA).
As for `OCc1ccn2c1[C@H](O)CC2`, the carcinogen call was “active; positive” (Species: MOUSE, Strain/Sex: SWISS/FEMALE, Route: DERMAL/SUBCUTANEOUS, Dose: 0, 20 MG/KG IN 0.2 ML ACETONE TO SHAVED MID-BACK REGION AND 0, 20 MG/KG IN 0.1 ML PHOSPHATE BUFFER TO INTERSCAPULAR REGI, Dose: 0, 20 MG/KG IN 0.2 ML ACETONE TO SHAVED MID-BACK REGION AND 0, 20 MG/KG IN 0.1 ML PHOSPHATE BUFFER TO INTERSCAPULAR REGI, Tumor Site: Type of Lesion: SKIN: BASAL CELL CARCINOMA); “active; positive” (Species: MOUSE, Strain/Sex: SWISS/FEMALE, Route: DERMAL, Dose: 0, 20 MG/KG IN 0.2 ML ACETONE 1/WK FOR 4 WK AFTER 6 MO ANIMALS WITHOUT TUMORS TREATED AGAIN 1/WK FOR 2 WK (STUDY DURATIO, Tumor Site: Type of Lesion: SKIN: BASAL CELL CARCINOMA); “active; positive” (Species: MOUSE, Strain/Sex: SWISS/FEMALE, Route: SUBCUTANEOUS, Dose: 0, 20 MG/KG IN 0.1 ML PHOSPHATE BUFFER 1/WK FOR 4 WK AFTER 6 MO ANIMALS WITHOUT TUMORS TREATED AGAIN 1/WK FOR 2 WK (STUD, Tumor Site: Type of Lesion: SKIN: BASAL CELL CARCINOMA).

The values are drawn from PubChem BioAssay AID1259411 (Chemical Carcinogenesis Research Information System (CCRIS), 2018).
